From US8263369B2, “Compound ceramidastin, method for producing the same, and use of the same” (Microbial Chemistry Research Foundation, priority 2008, dated 2012)

Assays:
[1] = biological target: T1, neutral/alkaline ceramidase (Pseudomonas aeruginosa, UniProt Q9I596); experiment: Neutral/alkaline ceramidase activity inhibitory test; format: biochemical; details: enzyme liquid from Pseudomonas aeruginosa culture; C12-NBD Ceramide substrate; pH 8.5; 37° C., 2.5 hours; TLC fluorescence; read-out: neutral/alkaline ceramidase inhibitory activity in terms of IC50 (converted)
T1 construct: the culture liquid was sterilized through filtration; endogenous in cells; host or cells: Pseudomonas aeruginosa (human clinical isolate), sterile-filtered culture supernatant, not purified
Experimental: A seed medium used was prepared as follows. Specifically, 3 g of Nissui Trypto-Soya Broth (product of Nissui Seiyaku) was dissolved in 100 mL of deionized water, and the resultant solution was dispensed into test tubes so that each test tube contained 3 mL of the solution, followed by high-pressure sterilization. Then, Pseudomonas aeruginosa (human clinical isolate) was inoculated into the seed medium in an amount of 2% by volume, and seed culturing was performed in a water bath at 37° C. and 100 rpm for 3 hours.
A synthetic medium for main culturing was prepared as follows. […]
Neutral/alkaline ceramidase activity was measured according to the method used by Okino et al. (J. Biol. Chem. 273, 14368-14373, 1998) with minor modifications. […]
The above solution (20 μL) was spotted onto a TLC plate (MERCK 25 TLC plates 20 cm×20 cm Silica gel 60 F254) and developed (chloroform:methanol ammonia (25%)=90:20:0.5, by volume). Subsequently, Image Reader FLA 5000 (product of FUJIFILM Corporation) was used to measure the fluorescence derived from the substrate, and Science Lab 2001 ImageGauge (product of FUJIFILM Corporation) was used to calculate the inhibitory rate of substrate decomposition.

NC/Nga mice = experiment: Therapeutic effects on atopic dermatitis-like model mice (mast cell count in skin); format: in vivo
From the text: Atopic dermatitis-like model mice were used to test ceramidastin for the therapeutic effects on atopic dermatitis. Specifically, the above-obtained enzyme liquid was applied onto the mice to examine the aggravation degree of corneal layer of epidermis and inflammation. In addition, the enzyme liquid and ceramidastin were applied thereonto to examine the effects on the skin brought by inhibiting neutral/alkaline ceramidase activity.
The atopic dermatitis-like model mice used were 6-week-old NC/Nga female mice (product of Charles River). The above NC/Nga mice are used as an atopic dermatitis model (Hiroi et al. Jpn. J. Pharmacol. 76, 175-183, 1998) and have an increased number of mast cells in the skin tissue.
Hair was removed in advance from the 6-week-old NC/Nga female mice under anesthesia (six mice for each group). Subsequently, absorbent cotton impregnated with acetone-ether (1:1) was pressed for 15 sec against them under anesthesia by nembutal. […]
The procedure of the above defatting and applications of ceramidase and ceramidastin was repeated 47 times in total so that it was performed twice in the morning and evening for 5 days a week. […] The thus-formed tissue pieces were stained with toluidine blue, and the number of mast cells in the tissue was counted under a microscope.

T1 sequence (Q9I596 25-670): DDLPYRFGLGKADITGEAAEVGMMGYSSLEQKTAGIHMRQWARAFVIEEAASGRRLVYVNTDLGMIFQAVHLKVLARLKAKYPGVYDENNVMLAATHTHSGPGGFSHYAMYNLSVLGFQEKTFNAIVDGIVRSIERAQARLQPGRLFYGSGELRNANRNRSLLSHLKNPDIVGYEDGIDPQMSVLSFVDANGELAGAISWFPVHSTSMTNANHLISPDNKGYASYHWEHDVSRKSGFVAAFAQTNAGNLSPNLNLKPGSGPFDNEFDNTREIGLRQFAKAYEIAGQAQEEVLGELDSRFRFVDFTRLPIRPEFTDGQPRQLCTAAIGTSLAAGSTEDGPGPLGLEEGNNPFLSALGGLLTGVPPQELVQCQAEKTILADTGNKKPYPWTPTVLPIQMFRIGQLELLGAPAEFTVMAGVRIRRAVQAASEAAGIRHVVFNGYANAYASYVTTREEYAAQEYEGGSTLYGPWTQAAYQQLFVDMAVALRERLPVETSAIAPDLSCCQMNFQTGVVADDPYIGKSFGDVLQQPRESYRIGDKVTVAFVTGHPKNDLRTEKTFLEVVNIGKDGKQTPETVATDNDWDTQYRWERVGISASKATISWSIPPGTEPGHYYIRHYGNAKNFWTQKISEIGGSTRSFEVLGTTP

Structure (SMILES): CCCCCCC(O)C1C2=C(CC(C(O)C(O)C/C=C/CO)CC3=C(C(=O)OC3=O)C1O)C(=O)OC2=O (stereo not drawn) [ceramidastin]
- IC50 [1]: 12 µM
- number of mast cells in mouse skin pieces (NC/Nga mice; NC/Nga female mice, defatting + ceramidase + 0.2 mL ceramidastin 1 mg/mL on skin, 47 times, toluidine blue, ceramidase-applied 22.6±8.5, untreated 13.04±4.38): 15.5±5.2
- effect on increase in the number of mast cells (NC/Nga mice; ceramidase+ceramidastin-applied skin pieces vs ceramidase-applied skin pieces, NC/Nga mice): significantly inhibited
